Format in all cases: cell-based
The test system of series [1] is MDA-MB-231 breast cancer cells. The experiment in a line: clonogenic assay (colony formation), MDA-MB-231. To be noted: for activity at 10 µM / inhibition at 10 µM: Homo sapiens, 336 h; for activity at 10 µM / Effect on cell proliferation (colony formation) (% of vehicle control): MDA-MB-231, 10 μM analogs, 14 days; for activity at 10 µM: read-out: Effect on cell proliferation (colony formation) (% of vehicle control); for cytotoxicity (in words) / inhibition at 10 µM: MDA-MB-231, 10 μM, two weeks. On the procedure: (§1) To determine if these analogs have anti-migration and anti-invasion activities in different cancer cell lines, transwell migration assays were performed using MDA-MB-231 breast cancer cells (FIG. 3) and HeLa cells (FIG. 5) for all synthetic analogs. […] Next, clonogenic assays were performed on the breast cancer cells treated with the compounds to rule out any indirect effect on cell migration due to cytotoxicity (FIG. 4). MDA-MB-231 cells were allowed to grow for 14 days in six-well plates in the presence or absence of the synthetic compounds at 10 μM.
To rule out any indirect effect on cell migration due to cytotoxicity, clonogenic assays were performed on the breast cancer cells treated with the compounds. MDA-MB-231 cells were allowed to grow for 14 days in six-well plates in the presence or absence of the synthetic compounds at 10 μM. […] For example, analog 3g blocked both cell migration (81.4%) and colony formation (42.7%). For these analogs cytotoxity may have partially contributed to their overall anti-migration effect. The cell toxicity data for all analogs are listed in Table 1 along with anti-migration data for comparison.

For series [2], the system named is MDA-MB-231 breast cancer cells. Put plainly: transwell migration assay, MDA-MB-231. To be noted: for inhibition at 10 µM: MDA-MB-231, MDA-MB-231, 10 μM, read-out: inhibition of cell migration; for pIC50: transwell migration of MDA-MB-231 cells, read-out: IC50 (anti-migration). As for the experimental part: as §1
To determine the effects of the synthesized mackroketone analogs on cancer cell migration, we performed transwell migration assay on each compound using an invasive and metastatic breast cancer cell line, MDA-MB-231. When cells were seeded at a density of 2.5×10^4 in media free of serum in the upper chamber but containing 5% FBS in the lower chamber, their ability to migrate in the presence and absence of 10 μM analogs were measured by counting the total number of cells in the lower chamber after 24 hrs.

Series [3] relates to HeLa cells. Put plainly: colony formation, HeLa. The source says: (§2) Based on the potent effects of synthetic thiazole analogs in blocking migration of MDA-MB-231 cells, ten analogs with high anti-migration activity but low or negligible cytotoxicity were selected to test their anti-migration activity in another metastatic cell line, HeLa. […] On the other hand, the analog 5i was not toxic to 231 cells, but it suppressed the clonogenic capability of HeLa cells by 45%. […] Thus 5k may be further evaluated for its potential as an anti-migration and anti-metastatic agent.

Series [4] has as its system f-actin in membrane protrusions of MDA-MB-231 cells. Put plainly: f-actin staining of actin-rich membrane protrusions (fluorescent microscopy). To be noted: MDA-MB-231, 10 μM, serum stimulated 2 hours; p<0.01. The source says:
An essential component of migration is protrusion of the cell membrane, which is driven by actin polymerization. […] See Chen, L.; Yang. S.; Jakoncic, J.; Zhang, J. J.; Huang, X. Y. Migrastatin analogues target fascin to block tumour metastasis. Nature 2010; 464:1062-1066. Erratum in: Nature. 2011; 476:240; Hashimoto, Y., D. J. Kim, and J. C. Adams. The roles of fascins in health and disease. J. Pathol. 2011; 224:289-300; and Jayo, A., and M. Parsons. Fascin: a key regulator of cytoskeletal dynamics. Int. J. Biochem. Cell Biol. 2010; 42:1614-1617. […] See Chen, 2010. Thus, we tested the hypothesis that compound 5k interferes with f-actin in membrane protrusions associated with cell motility. MDA-MB-231 cells were serum starved −/+10 μM 5k, then stimulated with serum for 2 hours to induce actin-rich membrane protrusions, which were analyzed by fluorescent microscopy.

For series [5], the system named is A549 non small cell lung cancer cells. The experiment in a line: migration assay, A549. To be noted: A549, 10 μM.
The subject of series [6] is MDA-MB-231 breast cancer cells. Put plainly: matrigel invasion assay, MDA-MB-231. The settings on record: MDA-MB-231, matrigel. The source says:
To determine if the synthetic thiazole analogs block invasion of metastatic cancer cells we performed matrigel invasion assays of MDA-MB-231 cells treated with 10 selected analogs.

Series [7] concerns fascin in MDA-MB-231 cells. The experiment in a line: fascin localization by immunofluorescence microscopy. An excerpt: Co-localization of f-actin and fascin appears as white pixels.
To further probe for a possible role of fascin in the reduction of actin-rich membrane protrusions, we determined the localization of fascin by immunofluorescence microscopy.

Series [8] relates to HeLa cells. The experiment in a line: transwell migration, HeLa. The settings on record: Homo sapiens. As for the experimental part:
as §1, §2

The structures appear in SMILES notation. pIC50: −log10 of the molar value. “Also recorded” adds a separate entry of the source. Where two headings read alike, the source gives them in different places. Where only a bound is given, the exact number is not on record here.

`Cc1ccc(-c2csc(N)n2)c(C)c1` [Compound 2b, 2-Amino-4-(2,4-dimethylphenyl)thiazole]: in series [1], the activity at 10 µM was 111% and the “cytotoxicity (in words)” value is listed as “no apparent cell toxicity”. Besides, the inhibition at 10 µM in series [2] (Homo sapiens) is over 50%.

Take `O=C(Nc1nc(-c2ccccc2)cs1)c1cccs1` [Compound 3a, N-(4-Phenylthiazol-2-yl)thiophene-2-carboxamide]: the activity at 10 µM in series [1] is 85.9%. Besides, the pIC50 in series [2] (Homo sapiens) is 5.60.

For the molecule `COc1ccc(C(=O)Nc2nc(-c3ccccc3)cs2)cc1OC` [Compound 3g, 3,4-Dimethoxy-N-(4-phenylthiazol-2-yl)benzamide], in series [1], the activity at 10 µM stood at 57.3% and the inhibition at 10 µM was 42.7%. Moreover, in series [2] (Homo sapiens), the inhibition at 10 µM is over 80%.

On to `O=C(Nc1nc(-c2ccccc2)cs1)c1ccncc1` [Compound 3i, N-(4-Phenylthiazol-2-yl)isonicotinamide], for which the activity at 10 µM in series [1] is 95.5%. For the same molecule, in series [2] (Homo sapiens), the pIC50 is 5.54.

Turning to `O=C(Nc1nc(-c2ccccc2)cs1)c1ccccc1` [Compound 3j, N-(4-Phenylthiazol-2-yl)benzamide], the activity at 10 µM in series [1] is 105%. Moreover, in series [2] (Homo sapiens), the pIC50 was 5.89.

Turning to `CCCCCCCCCCCC(=O)Nc1nc(-c2ccccc2)cs1` [Compound 3n, N-(4-Phenylthiazol-2-yl)dodecanamide], the “cytotoxicity (in words)” value in the series with HeLa cells [3] is reported as “no apparent cytotoxicity”. In series [1], the activity at 10 µM came to 71.5%, the inhibition at 10 µM worked out at 30% and the “cytotoxicity (in words)” value is recorded as “no apparent cell toxicity”. In addition, in series [2] (Homo sapiens), the inhibition at 10 µM is over 50% and the pIC50 was 6.00.

In the case of `Cc1ccc(-c2csc(NC(=O)c3ccccc3)n2)c(C)c1` [Compound 3o, N-(4-(2,4-dimethylphenyl)thiazol-2-yl)benzamide], in series [1], the activity at 10 µM worked out at 85%. Moreover, in series [2] (Homo sapiens), the pIC50 was 6.08.

As for `CCN(C(=O)c1ccco1)c1nc(-c2ccccc2)cs1` [Compound 4d, N-Ethyl-N-(4-phenylthiazol-2-yl)furan-2-carboxamide], in series [1], the activity at 10 µM is 96.5%.

In the case of `CN(C(=O)c1ccccc1)c1nc(-c2ccccc2)cs1` [Compound 4e, N-Methyl-N-(4-phenylthiazol-2-yl)benzamide], in series [1], the activity at 10 µM worked out at 123% and the “cytotoxicity (in words)” value is listed as “no apparent cell toxicity”. For the same molecule, in series [2] (Homo sapiens), the inhibition at 10 µM was over 50% and the pIC50 was 6.44.

In the case of `CN(C(=O)C1CCCC1)c1nc(-c2ccccc2)cs1` [Compound 4f, N-Methyl-N-(4-phenylthiazol-2-yl)cyclopentanecarboxamide], in series [1], the activity at 10 µM was determined as 132%.

For `CN(C(=O)C1CCCCC1)c1nc(-c2ccccc2)cs1` [Compound 4g, N-Methyl-N-(4-phenylthiazol-2-yl)cyclohexanecarboxamide], the activity at 10 µM in series [1] stood at 97.5%.

`CCCCCC(=O)N(C)c1nc(-c2ccccc2)cs1` [Compound 4h, N-Methyl-N-(4-phenylthiazol-2-yl)hexanamide]: the activity at 10 µM in series [1] came to 128%.

For `CCCCCCCCCCCC(=O)N(C)c1nc(-c2ccccc2)cs1` [Compound 4i, N-Methyl-N-(4-phenylthiazol-2-yl)dodecanamide], the activity at 10 µM in series [1] stood at 111%.

For the molecule `Cn1c(-c2ccccc2)cs/c1=N/C(=O)c1cccs1` [Compound 5a, N-(3-Methyl-4-phenylthiazol-2(3H)-yliene)thiophene-2-carboxamide], in series [1], the activity at 10 µM came out at 85%.

With `Cn1c(-c2ccccc2)cs/c1=N/C(=O)c1ccco1` [Compound 5b, N-(3-Methyl-4-phenylthiazol-2(3H)-yliene)furan-2-carboxamide], the activity at 10 µM in series [1] was 107%.

On to `Cn1c(-c2ccccc2)csc1=NC(=O)c1ccc(Cl)cc1` [Compound 5c, 4-Chloro-N-(3-methyl-4-phenylthiazol-2(3H)-ylidene)benzamide], for which the activity at 10 µM in series [1] came to 98.2%. Moreover, the pIC50 in series [2] (Homo sapiens) is 5.95.

As for `Cn1c(-c2ccccc2)cs/c1=N/C(=O)c1ccc(Br)cc1` [Compound 5d, 4-Bromo-N-(3-methyl-4-phenylthiazol-2(3H)-yliene)benzamide], the activity at 10 µM in series [1] was 63.8%.

As for `COc1cc(C(=O)/N=c2/scc(-c3ccccc3)n2C)cc(OC)c1OC` [Compound 5e, 3,4,5-Trimethoxy-N-(3-methyl-4-phenylthiazol-2(3H)-yliene)benzamide], in series [1], the activity at 10 µM worked out at 75.4%.

Regarding `Cc1ccc(-c2cs/c(=N/C(=O)c3cccs3)n2C)c(C)c1` [Compound 5f, N-(4-(2,4-dimethylphenyl)-3-methylthiazol-2(3H)-yliene)thiophene-2-carboxamide], in series [1], the activity at 10 µM worked out at 102%.

With `COc1ccc(C(=O)N=c2scc(-c3ccccc3)n2C)cc1OC` [Compound 5g, 3,4-Dimethoxy-N-(3-methyl-4-phenylthiazol-2(3H)-yliene)benzamide], in series [1], the “Effect on cell proliferation (colony formation) (% of vehicle control)” value was determined as 40.9%.

As to `Cn1c(-c2ccccc2)cs/c1=N/C(=O)c1cccnc1` [Compound 5h, N-(3-Methyl-4-phenylthiazol-2(3H)-yliene)nicotinamide], in series [1], the activity at 10 µM is 112%.

In the case of `CCn1c(-c2ccccc2)csc1=NC(=O)c1cccs1` [Compound 5i, N-(3-Ethyl-4-phenylthiazol-2(3H)-yliene)thiophene-2-carboxamide], in the series with HeLa cells [3], the “suppression of clonogenic capability” value is 45%. In series [1], the “Effect on cell proliferation (colony formation) (% of vehicle control)” value turned out to be 97.7% and the “cytotoxicity (in words)” value is “not toxic”. Also, the pIC50 in series [2] is 5.68.

Consider `Cn1c(-c2ccccc2)cs/c1=N/C(=O)c1ccccc1` [Compound 5j, N-(3-Methyl-4-phenylthiazol-2(3H)-yliene)benzamide], for which the “cytotoxicity (in words)” value with HeLa cells [3] is recorded as “strong inhibitor of cell proliferation”. Moreover, in series [1], the activity at 10 µM stood at 25.2%, the inhibition at 10 µM came to 75% and the “cytotoxicity (in words)” value was “strong inhibitor of cell proliferation”. Besides, in series [2] (Homo sapiens), the pIC50 was 6.72.

As to `Cc1ccc(-c2cs/c(=N/C(=O)c3ccccc3)n2C)c(C)c1` [Compound 5k, N-(4-(2,4-Dimethylphenyl)-3-methylthiazol-2(3H)-yliene)-benzamide], in series [4], the “reduction in f-actin intensity” value is reported as 55%. Further, in series [5], the “loss of migratory capacity” value is given as about 80%. The “cytotoxicity (in words)” value with HeLa cells [3] was “no apparent cytotoxity”. Also, the “blocking cell invasion (in words)” value in series [6] was “most potent compound in blocking cell invasion”. Moreover, in series [1], the activity at 10 µM stood at 121% and the “cytotoxicity (in words)” value was “no apparent cell toxicity; also recorded: no apparent cytotoxity”. The “localization of fascin in actin-rich membrane regions (in words)” value in series [7] is listed as “notably missing from the actin-rich membrane regions”. In the series with HeLa cells [8], the inhibition at 10 µM is over 85%. For the same molecule, the pIC50 in series [2] (Homo sapiens) is 6.75.
